# In US20190375708A1 (VenatoRx Pharmaceuticals, Inc., priority 2018, published 2019):
# Tests used:
# [1] = test system: HBV replication in HepAD38 cells; assay: Anti-HBV replication assay in HepAD38 cells (QPCR of extracellular HBV DNA); type: cell-based, HBV (genotype D, serotype ayw); conditions: Hepatitis B virus, 168 h, 7 days incubation, extracellular HBV DNA by QPCR, read-out: Anti-HBV EC50
# Method in brief: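 Stably transfected HepG2-derived HepAD38 cells express HBV (genotype D, ayw) once tetracycline is withdrawn. Compounds act for 7 days, after which secreted HBV DNA is quantified by QPCR relative to DMSO-treated wells.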
# [2] = In vitro cytotoxicity assay (MTT cell viability) in HepG2 cells; type: cell-based, human; conditions: human
# Method in brief: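 Using MTT conversion as the viability measure, HepG2 cells were incubated with compounds for 7 days (30 μM to 1.0 nM). Absorbance at 492 nm was normalized to vehicle and fitted to give CC50.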
SMILES,EC50 [1] [nM],CC50 at 7 days [2] [nM]
"Cc1c(C(=O)Nc2ccnc(F)c2)c(C)n(C)c1C(=O)C(=O)N[C@@H](C)C(F)(F)F [Example 274, (S)-N-(2-fluoropyridin-4-yl)-1,2,4-trimethyl-5-(2-oxo-2-((1,1,1-trifluoropropan-2-yl)amino)acetyl)-1H-pyrrole-3-carboxamide]",< 50,> 30000
"Cc1c(C(=O)Nc2ccc(F)nc2)c(C)n(C)c1C(=O)C(=O)N[C@]1(C)CC[C@H](O)CC1 [Example 240, N-(6-fluoropyridin-3-yl)-5-(2-(((1s,4s)-4-hydroxy-1-methylcyclohexyl)amino)-2-oxoacetyl)-1,2,4-trimethyl-1H-pyrrole-3-carboxmaide]",50 to 499,> 30000
"Cc1cc(NC(=O)c2c(C)c(C(=O)C(=O)N[C@]3(C)CC[C@H](O)CC3)n3c2CCCC3)ccc1F [Example 737, N-(4-fluoro-3-methylphenyl)-3-(2-(((1s,4s)-4-hydroxy-1-methylcyclohexyl)amino)-2-oxoacetyl)-2-methyl-5,6,7,8-tetrahydroindolizine-1-carboxamide]",< 50,> 30000
"Cc1cc(NC(=O)c2cc(C(=O)C(=O)NCC(C)(C)O)n3c2CCCC3)ccc1F [Example 419, N-(4-fluoro-3-methylphenyl)-3-(2-((2-hydroxy-2-methylpropyl)amino)-2-oxoacetyl)-5,6,7,8-tetrahydroindolizine-1-carboxamide]",> 1000,> 30000
"Cc1cc(NC(=O)c2c(C)c(C(=O)C(=O)NC3CCc4nc(N)sc4C3)n(C)c2C)ccc1F (stereo not shown) [Example 20, 5-(2-((2-amino-4,5,6,7-tetrahydrobenzo[d]thiazol-6-yl)amino)-2-oxoacetyl)-N-(4-fluoro-3-methylphenyl)-1,2,4-trimethyl-1H-pyrrole-3-carboxamide]",< 50,500 to 4990
"Cc1cc(NC(=O)c2c(C)c(C(=O)C(=O)NC(C)C(F)(F)F)n(C)c2C)ccc1F (stereo not shown) [Example 10, N-(4-fluoro-3-methylphenyl)-1,2,4-trimethyl-5-(2-oxo-2-((1,1,1-trifluoropropan-2-yl)amino)acetyl)-1H-pyrrole-3-carboxamide]",< 50,5000 to 30000
"Cc1csc(NC(=O)C(=O)c2c(C)c(C(=O)Nc3ccc(F)c(Cl)c3)c(C)n2C)n1 [Example 316, N-(3-chloro-4-fluorophenyl)-1,2,4-trimethyl-5-(2-((4-methylthiazol-2-yl)amino)-2-oxoacetyl)-1H-pyrrole-3-carboxamide]",< 50,> 30000
"Cc1cc(NC(=O)c2c(C)c(C(=O)C(=O)N[C@@H](C(=O)O)[C@H](C)O)n(C)c2C)ccc1F [Example 35, (2-(4-((4-fluoro-3-methylphenyl)carbamoyl)-1,3,5-trimethyl-1H-pyrrol-2-yl)-2-oxoacetyl)-D-threonine]",> 1000,> 30000
"Cc1cc(NC(=O)c2c(Cl)c(C(=O)C(=O)N[C@H]3COC[C@@H]3O)n3c2CCC3)ccc1F [Example 572, 6-chloro-N-(4-fluoro-3-methylphenyl)-5-(2-(((3S,4R)-4-hydroxytetrahydrofuran-3-yl)amino)-2-oxoacetyl)-2,3-dihydro-1H-pyrrolizine-7-carboxamide]",< 50,> 30000
"CCNC(=O)N1CCC(C)(NC(=O)C(=O)c2c(C)c(C(=O)Nc3ccc(F)c(C)c3)c(C)n2C)CC1 [Example 614, N-ethyl-4-(2-(4-((4-fluoro-3-methylphenyl)carbamoyl)-1,3,5-trimethyl-1H-pyrrol-2-yl)-2-oxoacetamido)-4-methylpiperidine-1-carboxamide]",< 50,> 30000
"Cc1cc(NC(=O)c2c(C)c(C(=O)C(=O)NCC(C)(C)O)n(C)c2C)cnc1F [Example 183, N-(6-fluoro-5-methylpyridin-3-yl)-5-(2-((2-hydroxy-2-methylpropyl)amino)-2-oxoacetyl)-1,2,4-trimethyl-1H-pyrrole-3-carboxamide]",500 to 1000,> 30000
